Measured values taken from patent publication US9394555B2, “Compositions comprising a polypeptide having cellulolytic enhancing activity and a dioxy compound and uses thereof” (priority 2010, dated 2016).

Legend:
[1] = biological target: T1, T. aurantiacus GH61A polypeptide (Thermoascus aurantiacus, UniProt G3XAP7, N13Y); assay: Microcrystalline cellulose conversion assay II (Examples 10, 11), T. reesei CEL7A cellobiohydrolase I + A. oryzae CEL3A beta-glucosidase; format: biochemical; details: 72 hours, 50° C.
Description: A 5% microcrystalline cellulose slurry was prepared by addition of 2.5 g of AVICEL® PH101 to a graduated 50 ml screw-cap conical tube followed by approximately 40 ml of deionized water. Each conical tube was then mixed thoroughly by shaking/vortexing, and adjusted to 50 ml total with deionized water and mixed again. For samples containing dioxy compounds, a similar slurry was prepared by the addition of 100 mg of solid dioxy compound and 2.5 g of AVICEL® PH101 to a graduated 50 ml screw-cap conical tube followed by approximately 40 ml of deionized water. Each conical tube was then mixed thoroughly by shaking/vortexing, and adjusted to 50 ml total with deionized water and mixed again.
The dioxy compounds assayed include caffeic acid, dichlorophenolindophenol (DCPIP), ethyl gallate, gallic acid, 3,4-dihydroxybenzoic acid, pyrocatechol, pyrogallol, sinapinic acid (3,5 dimethoxy-4-hydroxy cinnamic acid), and tannic acid.
In all cases, the contents of the tube (5% microcrystalline cellulose slurry with or without 0.2% dioxy compound) were then quickly transferred to a 100 ml beaker and stirred rapidly with a magnetic stirrer. Five hundred μl aliquots of the 5% AVICEL® slurry were pipetted into wells of a 2.0 ml 96-deepwell plate (Axygen, Union City, Calif.) using a 1000 μl micropipette with a wide aperture tip (end of tip cut off about 2 mm from the base). One hundred μl of deionized water and 300 μl of 3.33 mM MnSO4-500 mM sodium acetate pH 5 were then added to each well. Enzyme mixtures were prepared and then added simultaneously to all wells in a volume of 100 μl, for a total of 1 ml in each reaction. […] All experiments reported were performed in triplicate.
(§1) Primary analysis of the hydrolysis reactions was performed using an AGILENT® 1100 HPLC with CHEMSTATION® software equipped with an AMINEX™ HPX-87H column. After approximately 4 days, the deep-well plate was removed from the incubator and chilled overnight to 4° C. The plate was then mixed well by inversion and briefly centrifuged at 52×g in a SORVALL® RT7 centrifuge for 10 seconds. Samples were then mixed by pipetting, and 200 μl from each well were transferred to a MULTISCREEN® HV centrifuge filter plate assembly. The centrifuge filter plate assembly was centrifuged at 2000 rpm in a SORVALL® RT7 centrifuge for 20 minutes. […] Sugars were detected using a refractive index detector with quantification by integration compared to purified sugar standards.
All HPLC data processing was performed using MICROSOFT EXCEL™ software. […] In this assay only glucose was measured since beta-glucosidase was at high levels in all samples but the controls. The degree of cellulose conversion was calculated using Equation 1. Triplicate data points were averaged and standard deviation was calculated.
The microcrystalline cellulose hydrolysis assay was performed as described in Example 10.
Data were collected and analyzed, as described in Example 10, after 72 hours of incubation at 50° C.

[2] = biological target: T1, T. aurantiacus GH61A polypeptide; assay: Bacterial cellulose conversion assay (Examples 15, 16); format: biochemical; details: 72 hours, 50° C.
Description: Bacterial cellulose was prepared from NATA DE COCO (Huerto International Trading, Lucena City, Philippines) by extensive rinsing of one 500 ml can of cubes with water followed by homogenation for 15 minutes in 0.25 M sodium hydroxide using a WARING BLENDER® (Waring Products, Torrington, Conn., USA). The resulting slurry was pelleted at 40,000×g in a SORVALL® RT7 centrifuge. The supernatant was discarded. The pellet was then resuspended in 0.25 M sodium hydroxide and stirred overnight at 4° C. This procedure was repeated four times. Following the first washing steps, the cellulose was washed six times under similar conditions, substituting water for 0.25 M sodium hydroxide. Following the water washing, the cellulose was again homogenized for 15 minutes in a WARING BLENDER®, and adjusted to a final volume of 250 ml.
A 0.36% bacterial cellulose slurry was prepared as described in Example 14. This 0.36% slurry was thoroughly resuspended by shaking, and quickly transferred to a 100 ml beaker and stirred rapidly with a magnetic stirrer. Seven hundred μl aliquots of the bacterial cellulose slurry were pipetted into wells of a 2.0 ml 96-deepwell plate (Axygen, Union City, Calif.) using a 1000 μl micropipette with a wide aperture tip (end of tip cut off about 2 mm from the base). One hundred μl of 10 mM MnSO4-500 mM sodium acetate pH 5 was then added to each well. One hundred μl of either deionized water, a 1% gallic acid solution dissolved in water, or a 1% gallic acid solution containing 50 mM EDTA were added to each well. Enzyme mixtures were prepared and then added simultaneously to all wells in a volume of 100 μl, for a total of 1 ml in each reaction. […] All experiments reported were performed in triplicate.
as §1, with “briefly centrifuged 52×g in” for “briefly centrifuged at 52×g in”
All HPLC data processing was performed using MICROSOFT EXCEL™ software. […] In this assay only glucose was measured since beta-glucosidase was at high levels in all samples but the controls. Percent conversion was determined using Equation 1. Triplicate data points were averaged and standard deviation was calculated.
The bacterial cellulose hydrolysis assay was performed as described in Example 15.
Data was collected and analyzed, as described in Example 15, after 72 hours of incubation at 50° C.

Molecule: O=C(O)c1cc(O)c(O)c(O)c1 [gallic acid]
- conversion (hydrolysis) of the microcrystalline cellulose ([1]; dioxy compound 0.1% w/w alone, no enzymes): no significant hydrolysis
- hydrolysis of the bacterial cellulose ([2]; gallic acid 0.1% w/w + 5 mM EDTA + A. oryzae CEL3A beta-glucosidase (50 mg/g), no GH61): no significant hydrolysis
- hydrolysis of the bacterial cellulose ([2]; gallic acid 0.1% w/w + 5 mM EDTA + T. aurantiacus GH61A polypeptide (50 mg/g), no beta-glucosidase): no significant hydrolysis
- conversion of the bacterial cellulose ([2]; gallic acid 0.1% w/w + 5 mM EDTA, no enzymes): no significant conversion
- hydrolysis of the bacterial cellulose ([2]; gallic acid 0.1% w/w + A. oryzae CEL3A beta-glucosidase (50 mg/g), no GH61): no significant hydrolysis
- conversion of the bacterial cellulose ([2]; gallic acid 0.1% w/w alone, no enzymes): no significant conversion

B1: T. aurantiacus GH61A polypeptide: GH61A polypeptide having cellulolytic enhancing activity (SEQ ID NO: 14), recombinantly produced in Aspergillus oryzae JaL250 (protein, listed as Thermoascus aurantiacus)
chain: MSFSKIIATAGVLASASLVAGHGFVQNIVIDGKYYGGYLVNQYPYMSNPPEVIAWSTTATDLGFVDGTGYQTPDIICHRGAKPGALTAPVSPGGTVELQWTPWPDSHHGPVINYLAPCNGDCSTVDKTQLEFFKIAESGLINDDNPPGIWASDNLIAANNSWTVTIPTTIAPGNYVLRHEIIALHSAQNQDGAQNYPQCINLQVTGGGSDNPAGTLGTALYHDTDPGILINIYQKLSSYIIPGPPLYTG
- conversion of the microcrystalline cellulose ([1]; T. aurantiacus GH61A polypeptide (10 mg/g) + cellobiohydrolase I + beta-glucosidase (5 mg/g each), no dioxy compound): 21.4±0.5%
- conversion of the bacterial cellulose ([2]; T. aurantiacus GH61A polypeptide (50 mg/g) + A. oryzae CEL3A beta-glucosidase (50 mg/g), no gallic acid): no significant conversion
- conversion of the bacterial cellulose ([2]; T. aurantiacus GH61A polypeptide (50 mg/g) alone): 1.5±1.4%
